Assay results taken from BindingDB's records for doi:10.1016/j.bmcl.2006.10.030 (Paris-Sud University, 2007).

These compounds were tested against Triosephosphate isomerase (Homo sapiens, UniProt P60174) (assay: Inhibition of triosephosphate isomerase).
Sequence of Triosephosphate isomerase (P60174 whole entry): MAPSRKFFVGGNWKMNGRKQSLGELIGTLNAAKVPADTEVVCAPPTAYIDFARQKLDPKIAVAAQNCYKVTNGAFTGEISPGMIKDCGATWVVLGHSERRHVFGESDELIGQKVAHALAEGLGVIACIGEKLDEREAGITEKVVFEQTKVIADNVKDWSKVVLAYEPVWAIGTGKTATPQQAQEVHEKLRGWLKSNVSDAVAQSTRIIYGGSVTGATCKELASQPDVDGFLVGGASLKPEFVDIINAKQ

Structure (SMILES) | Ki [µM]
NC(CC(=O)NO)P(=O)(O)O (stereo not given) [hydrogen [1-azaniumyl-2-(hydroxycarbamoyl)ethyl]phosphonate] | > 500
O=C(CCP(=O)(O)O)NO [hydrogen 3-(hydroxyamino)-3-oxopropylphosphonate] | 160
N=C(COP(=O)(O)O)NO [Phosphoric acid mono-(N-hydroxycarbamimidoylmethyl) ester] | 4.5
O=C(COP(=O)(O)O)NO [2-(hydroxyamino)-2-oxoethyl dihydrogen phosphate] | 3
NNC(=O)COP(=O)(O)O [Phosphoric acid monohydrazinocarbonylmethyl ester] | 111
